Experimental data published in patent publication US20060167021A1, “Inhibition of src for treatment of reperfusion injury related to revascularization” (Caritas St. Elizabeth's Medical Center of Boston, Inc., priority 2002, published 2006).
Several values for one entry are separate records, joined by “and”; a condition that tells them apart may be missing. Equal entries are not always repeated.

Assays:
Sprague-Dawley rats [1] = assay: Rat ischemia/reperfusion model (echocardiography, Evan's blue & TTC staining at 24 hours); assay type: in vivo; set-up: LVDd / LVDs / AAR: unit not given beside the values
Experimental: (§1) After 24 hours, 10% Evans blue (Sigma, St. Louis, Mo.) was injected intravenously before sacrifice. Hearts were removed and cut in three equivalent sections distal to the occluding LAD suture and one proximal. The distal sections were digitized to evaluate the nonperfused area at risk using NIH Image software. Sections were stained with 2% triphenyltetrazolium chloride ([…]) (Sigma, St. Louis, Mo.) to delineate ischemic area. Infarct size is presented as the percentage of area at risk to eliminate variability. For example, the area at risk (AAR) is measured as a function of (white+red area)/(blue+white+red area); the % infarct is measured as a function of (white area (% of LV area))/(blue+white+red area); and the % infarct/AAR is calculated as a function of (white area (% of AAR))/(white+red area).
(§2) In-vivo water content was evaluated using MRI performed serially on anesthetized rats 24 hours following MI using a 4.7-T MR scanner (Bruker Billerica Mass.). […] MRI experiments to quantify T2 values of the myocardium were conducted by applying an ECG and respiratory-triggered multiecho spin echo sequence (number of echoes, 8; echo time, 6.6 ms; slice thickness, 1.0 mm; inplane resolution, 430 μm^2; total slices, 6-7). The trigger delay was chosen to capture all echoes during full diastole to avoid motion artifact between echoes. Corresponding gradient echo images were also acquired for each slice to clearly delineate the blood/myocardium border for region of interest evaluation of the spin echo sequence. Because of their increased water content, edematous regions are expected to have a longer T2 relaxation than nonedematous regions. Regions with T2>40 ms (two standard deviations above the mean of normally perfused myocardium) were delineated and the volume calculated as a percentage of the total LV myocardial volume. In addition, ex-vivo myocardial water content of proximal heart sections was measured as the percentage difference between initial wet and dry weights after 24 hours incubation at 80° C. Transthoracic echocardiography (SONOS 5500, Agilent Technologies, Palo Alto, Calif.) was performed to evaluate LV function before (baseline) and 4 weeks after MI. For this analysis, rats were anesthetized with 0.6 ml/kg ketamine intraperitoneally.
To establish whether Src inhibition is beneficial following transient ischemia, rats were subjected to occlusion followed by reperfusion, and then evaluated for ventricular function and infarct size after 24 hours. […] Subjects were evaluated with echocardiography (FIGS. 13 and 18) and TTC staining (FIGS. 14 and 18) 24 hours after occlusion (Table 7).

[2] = tested on: Src family kinases Lyn and/or Hck; details: cited from earlier work
Sprague-Dawley rats [3] = assay: In-vivo MRI T2 mapping of edematous myocardium; set-up: species or system rat
From the text: Because of their increased water content edematous regions are expected to have a longer 72 relaxation than nonedematous regions. As a result, T2 maps of the myocardium can be used as an index of water content. Regions with T2>40 ms (two standard deviations above normally perfused myocardium) were delineated as an index of edema.
Because of their increased water content, edematous regions are expected to have a longer T2 relaxation than nonedematous regions and therefore T2 maps of the myocardium can be used as an index of water content. Regions with T2>40 ms (two standard deviations above normally perfused myocardium) were delineated as an index of edema.

CML cells = details: cited from earlier work
Sprague-Dawley rats [4] = assay: Ex-vivo myocardial water content (wet/dry weights); assay type: in vivo, rat
Experimental: as §2
Rats were treated with 0.5 mg/kg, 1.5 mg/kg, or a placebo post-MI induction and the myocardial water content was compared.

mouse cardiac tissue = assay: Ultrastructural analysis of cardiac tissue by electron microscopy after MI; assay type: in vivo; details: 1.5 mg/kg 45 minutes following occlusion
Experimental: Cardiac tissue was prepared from mice following VEGF injection or 3-24 hours following ischemia and the infarct, the peri-infarct, and remote regions were sectioned. Tissue was fixed in 0.1 M sodium cacodylate buffer (pH 7.3) containing 4% paraformaldehyde+1.5% glutaraldehyde for 2 hours, transferred to 5% glutaraldehyde overnight, then 1% osmium tetroxide for 1 hour. Blocks were washed, dehydrated, cleared in propylene oxide, infiltrated with Epon/Araldite, and embedded in resin. Ultrathin sections were stained with uranyl acetate and lead citrate, and viewed using a Philips CM-100 transmission electron microscope.

mice = details: mouse, in vivo; cited from earlier work
[5] = tested on: Flk-cadherin-catenin complex; assay: In vivo permeability model: immunoprecipitation/immunoblotting after VEGF injection; details: mice pretreated before VEGF injection; FIG. 20D
Experimental: At the appropriate time, the heart was rapidly excised and homogenized in 3 ml RIPA lysis buffer as previously described (Eliceiri et al. Mol. Cell 4: 915-924 (1999)) and the protein concentration measured (BCA Protein Assay; Pierce, Rockford, Ill.).
Tissue lysates were prepared for immunoprecipitation and immunoblotting as previously described (Eliceiri et al. Mol. Cell 4: 915-924 (1999)) with antibodies from Santa Cruz Biotechnology (Santa Cruz, Calif.): Flk (sc315), VE-cadherin (sc6458), β-catenin (sc7963), and P-Tyrosine (sc7020 or sc508). Representative data from at least three separate experiments is shown.
(Data is representative of at least three experiments.)
Heart lysates prepared from animals injected with or without VEGF were subjected to immunoprecipitation with anti-Flk followed by immunoblotting for VE-cadherin and β-catenin. In control mice, a pre-existing complex between Flk, β-catenin, and VE-cadherin in blood vessels was observed. This complex was rapidly disrupted within 2-5 minutes following VEGF stimulation, and had reassembled by 15 minutes in blood vessels in vivo. The timescale of complex dissociation completely paralleled that of Flk, β-catenin, and VE-cadherin phosphorylation and the dissociation of β-catenin from VE-cadherin.

Sprague-Dawley rats [6] = assay: Echocardiography 4 weeks post-MI; assay type: in vivo, rat
Experimental: as §2
MI was induced in rats as described above. […] Tests were performed 24 hours post-MI induction. Four weeks post-MI, fraction shortening was assessed by echocardiography.

VEGF = assay: Immunohistochemistry for VEGF in hearts 24 hours after MI; assay type: in vivo, rat; details: 24 hours after induction of MI; FIGS. 2A and 2B
Experimental: FIGS. 2A and 2B show the results of an immunohistochemistry assay for VEGF on rat heart samples 24 hours after induction of myocardial infarction, with VEGF+ and ischemic regions indicated.

Sprague-Dawley rats [7] = assay: Rat acute MI model (permanent LAD ligation), infarct size by Evans blue/TTC; assay type: in vivo
Experimental: (§3) Generally, myocardial Infarction (MI) was induced by ligating the left anterior descending (LAD) coronary artery in Sprague-Dawley rats or in C57 black mice. Intraperitoneal injections of the inhibitors were delivered after the induction of infarction. High resolution magnetic resonance imaging (MRI), dry weight measurements, infarct size, heart volume and area at risk were determined 24 hours after induction of MI. Survival rates and echocardiography were determined at 4 weeks post-MI.
as §1
Essentially, MI was induced in rats as described above. […] Control rats were mock-treated with the dimethylsulfoxide (DMSO) vehicle. Tests were performed 24 hours post-MI induction.
To study the kinetics of this response, PP1 was administered at various times following occlusion. Essentially, MI was induced in rats as described above. […] Control rats were mock-treated with the dimethylsulfoxide (DMSO) vehicle. Tests were performed 24 hours post-MI induction.

[8] = tested on: 2-year-old C57 black mice; assay: Survival after MI in 2-year-old mice
Experimental: 2-year-old C57/ByJ mice were used as a model of severe MI to test the effects of Src inhibition on survival. […] Adult male Sprague-Dawley rats (Harlan, Indianapolis, Ind.) and C57/ByJ mice (Jackson Laboratory, Bar Harbor, Me.) were maintained under approved protocols.
MI was induced in mice. […] Survival rates were assessed.
To evaluate survival after MI, 2-year-old C57 black mice were used as a model characterized by considerable mortality (>40%) after LAD ligation.

C57 black mice = assay: Mouse MI model (permanent occlusion), infarct size; assay type: in vivo
Experimental: as §3, §1

[9] = individual rat, Table 8, listed as Src-I
[10] = individual rat, Table 8, MRI, listed as Src-I
[11] = individual rat, 1.5 mg/kg i.p., 24 hours after occlusion, 1.5 mg/kg

Structure (SMILES): COc1cc(Nc2c(C#N)cnc3cc(OCCCN4CCN(C)CC4)c(OC)cc23)c(Cl)cc1Cl [SKI-606]
- decrease in infarct size in the ischemia-reperfusion model (Sprague-Dawley rats [1]; 5 mg/kg, FIG. 19): 43%
- % infarct/AAR, group mean (Sprague-Dawley rats [1]; SKI-606 study, Example 9): 54.8±2.45 % of AAR
- Area at risk, group mean (Sprague-Dawley rats [1]; SKI-606 study, Example 9): 37.9±2.76
- RWMS (echocardiography), group mean (Sprague-Dawley rats [1]; SKI-606 study, Example 9): 21.3±1.25
- fractional shortening and regional wall motion score (Sprague-Dawley rats [1]; after 24 hours, n=7 each group): favorably impacted fractional shortening and regional wall motion score
- % FS (Sprague-Dawley rats [1]; [9]): 21.6%
- AAR (Sprague-Dawley rats [1]; [9]): 38.6 and 35.2 and 36.7 and 42.3 and 36.5
- Dd (Sprague-Dawley rats [1]; [9]): 0.873 and 0.881 and 0.703 and 0.805 and 0.865 and 0.669 and 0.89
- Ds (Sprague-Dawley rats [1]; [9]): 0.661 and 0.669 (3×) and 0.619 and 0.678 and 0.513
- IA/AAR (Sprague-Dawley rats [1]; [9]): 58.6 and 55.5 and 54.5 and 52.4 and 53
- RW MS (Sprague-Dawley rats [1]; [9]): 20 (2×) and 21 (3×) and 23 (2×)
- phosphorylation of the autoactivation site of Lyn and/or Hck [2]: reduces phosphorylation
- MRI % T2>35, group mean (Sprague-Dawley rats [3]; SKI-606 study, Example 9): 18.4±8.85%
- (%) T2 > 35 (Sprague-Dawley rats [3]; [10]): 27.518% and 13.699% and 13.287% and 28.257% and 9.198%
- (%) T2 > 40 (Sprague-Dawley rats [3]; [10]): 17.955% and 5.743% and 7.537% and 19.466% and 5.719%
- T2 > 40 (Sprague-Dawley rats [3]; individual rat, Table 9 summary, listed as Src-I): 19.466 and 5.719 and 17.955 and 5.743 and 7.537
- antiproliferative activity against CML cells in culture (CML cells): potent antiproliferative activity
- Water Content, group mean (Sprague-Dawley rats [4]; SKI-606 study, Example 9): 76.7±2.01
- % water (Sprague-Dawley rats [4]; [9]): 78% and 74.4% and 74.1% and 79.1% and 78.7% and 76.6% and 75.8%

Structure (SMILES): Cc1ccc(-c2nn(C(C)(C)C)c3ncnc(N)c23)cc1 [PP1]
- % FS (echocardiography), group mean (Sprague-Dawley rats [1]; 1.5 mg/kg i.p., n=4, 24 hours): 30.6±3.16%
- % infarct/AAR, group mean (Sprague-Dawley rats [1]; 1.5 mg/kg i.p., n=4, 24 hours): 42.4±3.72 % of AAR
- Area at risk, group mean (Sprague-Dawley rats [1]; 1.5 mg/kg i.p., n=4, 24 hours): 36.1±9.61
- RWMS (echocardiography), group mean (Sprague-Dawley rats [1]; 1.5 mg/kg i.p., n=4, 24 hours): 18.5±0.58
- reduction in infarct size following ischemia-reperfusion (Sprague-Dawley rats [1]; FIG. 14): 18%
- % FS (Sprague-Dawley rats [1]; [11]): 34.9% and 28.7% and 27.8% and 30.9%
- AAR (Sprague-Dawley rats [1]; [11]): 32.9 and 27.2 and 34.4 and 49.7
- IA/AAR (Sprague-Dawley rats [1]; [11]): 42.1 and 42.4 and 47 and 37.9
- LVDd (Sprague-Dawley rats [1]; [11]): 0.729 and 0.737 and 0.877 and 0.797
- LVDs (Sprague-Dawley rats [1]; [11]): 0.475 and 0.525 and 0.633 and 0.551
- RWMS (Sprague-Dawley rats [1]; [11]): 18 (2×) and 19 (2×)
- vascular gaps (ultrastructure) (mouse cardiac tissue): did prevent vascular gaps
- Cardiac Damage (observations counted) (mouse cardiac tissue; 3 hr MI): 2
- EC Injury (observations counted) (mouse cardiac tissue; 3 hr MI): 14
- Platelet Activation & Adhesion (observations counted) (mouse cardiac tissue; 3 hr MI): 11
- EC Barrier Dysfunction (observations counted) (mouse cardiac tissue; 3 hr MI, approximately 250 microvessels): 2
- Cardiac Damage (observations counted) (mouse cardiac tissue; 24 hr MI): 9
- EC Barrier Dysfunction (observations counted) (mouse cardiac tissue; 24 hr MI): 0
- EC Injury (observations counted) (mouse cardiac tissue; 24 hr MI): 15
- Platelet Activation & Adhesion (observations counted) (mouse cardiac tissue; 24 hr MI): 1
- myocyte injury (ultrastructure) (mouse cardiac tissue; at 24 hours): significant reduction in myocyte injury
- LV volumes with T2>40 ms versus vehicle treated rats (Sprague-Dawley rats [3]; 24 hours following permanent LAD occlusion, n=2, FIGS. 22A and 22B): a difference between LV volumes with T2>40 ms
- ischemia and brain damage after stroke (mice): reduce ischemia and brain damage after stroke
- Flk-cadherin-catenin complex after VEGF injection [5]: remains intact
- fractional shortening assessed by echocardiography (Sprague-Dawley rats [6]; 4 weeks post-MI, 1.5 mg/kg i.p., FIG. 11): 33.7%
- favorable effect on regional wall motion (Sprague-Dawley rats [6]; over 4 weeks, n=8): 9%
- favorable effect on systolic LV diameter (Sprague-Dawley rats [6]; over 4 weeks, n=8): 16%
- preservation of diastolic left ventricular diameter compared with untreated rats (Sprague-Dawley rats [6]; over 4 weeks, n=8): 11%
- preservation of fractional shortening compared with untreated rats (Sprague-Dawley rats [6]; over 4 weeks, n=8 each group): 46%
- VEGF expression in the ischemic tissues (VEGF): did not interfere with VEGF expression
- maximum inhibition in infarct size (Sprague-Dawley rats [7]; 1.5 mg/kg i.p. 45 minutes after MI induction, 24 hours post-MI, FIG. 5): 68%
- cardiac tissue 24 hours after induction of MI (Sprague-Dawley rats [7]; FIG. 1A vs 1B): cardioprotection
- smaller infarct size (maximum benefit) (Sprague-Dawley rats [7]; additional experiments, administration 45 minutes following occlusion, FIG. 17): 50%
- edema and infarct size, dose dependence (Sprague-Dawley rats [7]; additional experiments, maximum decrease at 1.5 mg/kg, FIGS. 15 and 16): dose-dependent decreases in edema and infarct size
- protection (infarct size) (Sprague-Dawley rats [7]; additional experiments, treatment after 6 hours, FIG. 17): 25%
- decrease in infarct size (Sprague-Dawley rats [7]; given six hours after LAD ligation, FIG. 7): 42%
- decrease in infarct size following permanent occlusion (Sprague-Dawley rats [7]; permanent occlusion, quoted for comparison with ischemia-reperfusion): 50%
- infarct size following permanent occlusion (Sprague-Dawley rats [7]; rat): significant reduction of infarct size
- survival within the first 4 weeks ([8]; 1.5 mg/kg 45 minutes post-MI, n=12 each group): 91.7%
- four-week survival rate ([8]; 1.5 mg/kg, FIG. 10): 100%
- decreased myocardial water content (Sprague-Dawley rats [4]; permanent MI, FIG. 8): 5%+/−1.3
- infarct size following permanent occlusion (C57 black mice): significant reduction of infarct size
